Measured values published in patent publication US20080269202A1, “Novel 2,3-benzodiazepine derivatives and their use as antipsychotic agents” (Teva Pharmaceutical Industries Ltd., priority 2007, published 2008).

| Structure (SMILES) | melting point [°C] |
| --- | --- |
| CNC(=O)N1N=C(c2ccc(N)c(C)c2)c2cc(OC)c(OC)cc2C[C@@H]1C | 157 to 159 |
| COc1cc2c(cc1OC)C(c1ccc([N+](=O)[O-])cc1)=NN(c1ncc(C)s1)C(C)C2 (stereo not shown) [Example 7] | 122 to 123 |
| COc1cc2c(cc1OC)C(c1ccc([N+](=O)[O-])c(Cl)c1)=NN(c1nncs1)C(C)C2 (stereo not shown) [Example 22] | 203 to 206 |
| COc1cc2c(cc1OC)C(c1ccc(N)cc1)=NN(c1nccs1)C(C)C2 (racemic) [Example 136] | 119 to 122 |
| COc1cc2c(cc1OC)C(c1ccc(N)cc1)=NN(c1nc(C)cs1)C(C)C2 (racemic) [Example 137] | 122 to 124 |
| COc1cc2c(cc1OC)C(c1ccc(N)cc1)=NN(C(=O)NC1CC1)[C@H](C)C2 | 116 to 119 |
| COc1cc2c(cc1OC)C(c1ccc([N+](=O)[O-])cc1)=NN(c1nccs1)C(C)C2 (stereo not shown) [Example 2] | 151 to 152 |
| COc1cc2c(cc1OC)C(c1ccc([N+](=O)[O-])cc1)=NN(c1noc(C)n1)C(C)C2 (stereo not shown) [Example 48] | 197 to 199 |
| CONC(=O)N1N=C(c2ccc(N)cc2)c2cc(OC)c(OC)cc2C[C@H]1C [Example 135] | 143 to 145 |
| COc1cc2c(cc1OC)C(c1ccc(N)cc1)=NN(c1nc(C)c(C)s1)C(C)C2 (racemic) [Example 139] | 121 to 124 |
| CCOc1cc2c(cc1OCC)C(c1ccc(N)cc1)=NN(c1ncon1)C(C)C2 (racemic) [Example 159] | 158 to 162 |
| COc1cc2c(cc1OC)C(c1ccc([N+](=O)[O-])cc1)=NN(c1nnc(C)o1)C(C)C2 (stereo not shown) [Example 30] | 177 to 178 |
| CCOc1cc2c(cc1OCC)C(c1ccc([N+](=O)[O-])cc1)=NN(C(=O)NC)C(C)C2 (stereo not shown) [Example 93] | 188 to 189 |
| CNC(=O)N1N=C(c2ccc(N)c(C)c2)c2cc(OC)c(OC)cc2CC1C (racemic) | 119 to 122 |
| CNC(=S)N1N=C(c2ccc(N)cc2)c2cc(OC)c(OC)cc2CC1C (racemic) | 235 to 237 |
| CCOc1cc2c(cc1OCC)C(c1ccc([N+](=O)[O-])cc1)=NN(c1nncs1)C(C)C2 (stereo not shown) [Example 26] | 172 to 174 |
| COc1cc2c(cc1OC)C(c1ccc(N)c(Cl)c1)=NN(C1=NCCS1)[C@H](C)C2 [Example 116] | 232 to 234 |
| COc1cc2c(cc1OC)C(c1ccc([N+](=O)[O-])c(C)c1)=NN(c1nccs1)C(C)C2 (stereo not shown) [Example 4] | 172 to 174 |

| Structure (SMILES) | melting point [°C] |
| --- | --- |
| COc1cc2c(cc1OC)C(c1ccc(N)c(Cl)c1)=NN(c1ncon1)C(C)C2 (racemic) [Example 158] | 232 to 235 |
| COc1cc2c(cc1OC)C(c1ccc([N+](=O)[O-])c(C)c1)=NN(c1nncs1)C(C)C2 (stereo not shown) [Example 20] | 192 to 195 |
| COc1cc2c(cc1OC)C(c1ccc([N+](=O)[O-])cc1)=NN(c1nccs1)C(C)C2 (stereo not shown) [Example 1] | 195 to 197 |
| COc1cc2c(cc1OC)C(c1ccc(N)cc1)=NN(C(=O)N1CCCCC1)C(C)C2 (racemic) [Example 178] | 129 to 132 |
| COc1cc2c(cc1OC)C(c1ccc(N)cc1)=NN(C(=O)N(C)C)[C@H](C)C2 | 258 to 260 |
| COc1cc2c(cc1OC)C(c1ccc(N)c(C)c1)=NN(c1nccs1)[C@H](C)C2 [Example 114] | 116 to 118 |
| COc1cc2c(cc1OC)C(c1ccc([N+](=O)[O-])cc1)=NN(c1ncon1)C(C)C2 (stereo not shown) [Example 41] | 190 to 192 |
| COc1cc2c(cc1OC)C(c1ccc(N)c(C)c1)=NN(c1ncon1)C(C)C2 (racemic) [Example 157] | 234 to 237 |
| COc1cc2c(cc1OC)C(c1ccc(N)cc1)=NN(c1ncn(C)n1)C(C)C2 (racemic) [Example 165] | 203 to 205 |
| COc1cc2c(cc1OC)C(c1ccc(N)cc1)=NN(c1ncnn1C)C(C)C2 (racemic) [Example 164] | 160 to 162 |
| COc1cc2c(cc1OC)C(c1cccc(Cl)c1)=NN(c1nncs1)C(C)C2 (stereo not shown) [Example 23] | 86 to 88 |
| COc1cc2c(cc1OC)C(c1ccc(N)c(Cl)c1)=NN(c1nncs1)C(C)C2 (racemic) [Example 148] | 125 to 130 |
| COc1cc2c(cc1OC)C(c1ccc(N)cc1)=NN(c1nc(C)nn1C)C(C)C2 (racemic) [Example 167] | 113 to 115 |
| COc1cc2c(cc1OC)C(c1ccc(N)cc1)=NN(c1ncc(C)o1)C(C)C2 (racemic) [Example 161] | 103 to 107 |
| COc1cc2c(cc1OC)C(c1ccc(NC(C)=O)c(Cl)c1)=NN(c1nccs1)[C@H](C)C2 [Example 186] | 213 to 215 |
| CCCNC(=O)N1N=C(c2ccc(N)c(C)c2)c2cc(OC)c(OC)cc2C[C@H]1C | 92 to 95 |
| CCNC(=O)N1N=C(c2ccc([N+](=O)[O-])cc2)c2cc(OC)c(OC)cc2CC1C (stereo not shown) [79] | 186 to 189 |
| COc1cc2c(cc1OC)C(c1ccc([N+](=O)[O-])cc1)=NN(c1nc(C)c(C)s1)C(C)C2 (stereo not shown) [Example 8] | 192 to 193 |

More lines, now with the values ahead:

| melting point [°C] | Structure (SMILES) |
| --- | --- |
| 101 to 104 | CCCNC(=O)N1N=C(c2ccc(N)cc2)c2cc(OC)c(OC)cc2C[C@H]1C |
| 170 to 173 | COc1cc2c(cc1OC)C(c1ccccc1)=NN(C1=NOCS1)C(C)C2 (stereo not shown) [Example 37] |
| 120 to 122 | COc1cc2c(cc1OC)C(c1ccc(N)cc1)=NN(c1ncc(C)s1)C(C)C2 (racemic) [Example 138] |
| 109 to 113 | COc1cc2c(cc1OC)C(c1ccc(N)c(C)c1)=NN(c1nccs1)C(C)C2 (racemic) [Example 140] |
| 107 to 110 | CCNC(=O)N1N=C(c2ccc(N)c(C)c2)c2cc(OC)c(OC)cc2C[C@H]1C |
| 159 to 160 | COc1cc2c(cc1OC)C(c1ccc(N)cc1)=NN(c1nncs1)[C@H](C)C2 [Example 108] |
| 209 to 211 | COc1cc2c(cc1OC)C(c1ccc(NC(C)=O)c(C)c1)=NN(c1nccs1)C(C)C2 (stereo not shown) [Example 182] |
| 135 to 137 | COc1cc2c(cc1OC)C(c1ccc(N)cc1)=NN(C1=NCCO1)C(C)C2 (racemic) [Example 153] |
| 225 to 229 | COc1cc2c(cc1OC)C(c1ccc([N+](=O)[O-])cc1)=NN(c1nnco1)C(C)C2 (stereo not shown) [Example 29] |
| 209 to 211 | COc1cc2c(cc1OC)C(c1ccc(N)cc1)=NN(c1nnc(C)o1)C(C)C2 (racemic) [Example 151] |
| 129 to 134 | COc1cc2c(cc1OC)C(c1ccc(N)c(Cl)c1)=NN(c1nncs1)[C@H](C)C2 [Example 111] |
| 217 to 220 | COc1cc2c(cc1OC)C(c1ccc(F)cc1)=NN(c1ncon1)C(C)C2 (stereo not shown) [Example 50] |
| 108 to 113 | CCOc1cc2c(cc1OCC)C(c1ccc(N)cc1)=NN(c1nncs1)C(C)C2 (racemic) [Example 149] |
| 125 to 126 | COc1cc2c(cc1OC)C(c1cccc(Cl)c1)=NN(c1nccs1)C(C)C2 (stereo not shown) [Example 10] |
| 110 to 113 | CNC(=O)N1N=C(c2cc(C)c(N)c(C)c2)c2cc(OC)c(OC)cc2C[C@H]1C |
| 204 to 207 | CCCCNC(=O)N1N=C(c2ccc(N)cc2)c2cc(OC)c(OC)cc2CC1C (racemic) |
| 194 to 195 | COc1cc2c(cc1OC)C(c1ccc([N+](=O)[O-])cc1)=NN(c1nc(C)cs1)C(C)C2 (stereo not shown) [Example 6] |
| 130 to 134 | COc1cc2c(cc1OC)C(c1ccc(NC(C)=O)cc1)=NN(c1nccs1)C(C)C2 (stereo not shown) [Example 181] |
| 152 to 153 | COc1cc2c(cc1OC)C(c1ccc(N)cc1)=NN(c1nncs1)C(C)C2 (racemic) [Example 144] |

| melting point [°C] | Structure (SMILES) |
| --- | --- |
| 169 to 170 | CCNC(=O)N1N=C(c2ccc(N)cc2)c2cc(OC)c(OC)cc2CC1C (racemic) |
| 260 to 262 | COc1cc2c(cc1OC)C(c1ccc(N)cc1)=NN(c1nc(=O)n(C)s1)C(C)C2 (racemic) [Example 152] |
| 80 to 83 | CNC(=O)N1N=C(c2ccc(F)cc2)c2cc(OC)c(OC)cc2CC1C (stereo not shown) |
| 220 to 222 | COc1cc2c(cc1OC)C(c1ccc(N)cc1)=NN(c1nnc(C)s1)C(C)C2 (racemic) [Example 145] |
| 213 to 214 | COc1cc2c(cc1OC)C(c1ccc([N+](=O)[O-])cc1)=NN(c1ncon1)C(C)C2 (stereo not shown) [Example 40] |
| 108 to 110 | COc1cc2c(cc1OC)C(c1ccc(N)c(Cl)c1)=NN(c1ncon1)[C@H](C)C2 [Example 107] |
| 159 to 163 | COc1cc2c(cc1OC)C(c1ccc(N)cc1)=NN(C1=NNC(=O)CS1)C(C)C2 (racemic) [Example 154] |
| 188 to 189 | COc1ccc(C2=NN(c3ncon3)C(C)Cc3cc(OC)c(OC)cc32)cc1OC (stereo not shown) [Example 53] |
| 122 to 124 | COc1cc2c(cc1OC)C(c1ccc(N)cc1)=NN(c1nc(C)c(C)s1)[C@H](C)C2 [Example 113] |
| 168 to 169 | COc1cc2c(cc1OC)C(c1ccc([N+](=O)[O-])c(Cl)c1)=NN(c1nccs1)C(C)C2 (stereo not shown) [Example 5] |
| 238 to 239 | COc1cc2c(cc1OC)C(c1ccc(NC(C)=O)cc1)=NN(c1nc(C)c(C)s1)[C@H](C)C2 [Example 184] |
| 233 to 236 | COc1cc2c(cc1OC)C(c1ccc(N)cc1)=NN(c1noc(C)n1)C(C)C2 (racemic) [Example 156] |
| 173 to 174 | COc1ccc(C2=NN(c3nncs3)C(C)Cc3cc(OC)c(OC)cc32)cc1OC (stereo not shown) [Example 25] |
| 105 to 107 | CNC(=O)N1N=C(c2ccc(N)cc2)c2cc(OC)c(OC)cc2CC1C (racemic) |
| 130 to 134 | CNC(=O)N1N=C(c2ccc(N)cc2)c2cc(OC)c(OC)cc2C[C@@H]1C |
| 215 to 216 | COc1cc2c(cc1OC)C(c1ccccc1)=NN(c1ncon1)C(C)C2 (stereo not shown) [Example 51] |
| 103 to 108 | CNC(=O)N1N=C(c2cccc(N)c2)c2cc(OC)c(OC)cc2CC1C (racemic) |
| 122 to 124 | CCNC(=O)N1N=C(c2ccc(N)cc2)c2cc(OC)c(OC)cc2C[C@H]1C |
